Data as given in publication doi:10.1101/2023.12.04.569845, “Identification of 4-(6-((2-methoxyphenyl)amino)pyrazin-2-yl)benzoic acids as CSNK2A inhibitors with antiviral activity and improved selectivity over PIM3” (bioRxiv, 2023).
Like-named read-outs stand apart in the source and are kept apart here. Blank lines part the entries; values can stand above or below the compound they belong to.

Columns and labels:
Experiment in all cases: biochemical
Set-up in all cases: Thermal shift (DSF, SYPRO Orange) Tm shift of recombinant kinase domains at 10 uM compound
MAPKAPK2 = MAPKAPK2 (Homo sapiens, UniProt P49137)
Sequence of MAPKAPK2 (P49137 whole entry): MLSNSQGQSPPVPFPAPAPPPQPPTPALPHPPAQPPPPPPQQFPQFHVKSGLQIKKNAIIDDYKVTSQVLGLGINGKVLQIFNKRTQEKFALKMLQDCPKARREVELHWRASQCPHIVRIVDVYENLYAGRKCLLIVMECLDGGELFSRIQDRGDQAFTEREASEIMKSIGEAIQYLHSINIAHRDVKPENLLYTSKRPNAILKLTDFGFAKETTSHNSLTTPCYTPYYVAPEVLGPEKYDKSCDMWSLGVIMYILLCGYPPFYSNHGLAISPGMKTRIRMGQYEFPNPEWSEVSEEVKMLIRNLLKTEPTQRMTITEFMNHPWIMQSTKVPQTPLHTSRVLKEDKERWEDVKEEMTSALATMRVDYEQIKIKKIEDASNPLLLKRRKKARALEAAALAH

PCTAIRE1 = target: T1, PCTAIRE1 (Homo sapiens, UniProt Q00536)
T1 construct: gene CDK16
T1 sequence (Q00536 whole entry): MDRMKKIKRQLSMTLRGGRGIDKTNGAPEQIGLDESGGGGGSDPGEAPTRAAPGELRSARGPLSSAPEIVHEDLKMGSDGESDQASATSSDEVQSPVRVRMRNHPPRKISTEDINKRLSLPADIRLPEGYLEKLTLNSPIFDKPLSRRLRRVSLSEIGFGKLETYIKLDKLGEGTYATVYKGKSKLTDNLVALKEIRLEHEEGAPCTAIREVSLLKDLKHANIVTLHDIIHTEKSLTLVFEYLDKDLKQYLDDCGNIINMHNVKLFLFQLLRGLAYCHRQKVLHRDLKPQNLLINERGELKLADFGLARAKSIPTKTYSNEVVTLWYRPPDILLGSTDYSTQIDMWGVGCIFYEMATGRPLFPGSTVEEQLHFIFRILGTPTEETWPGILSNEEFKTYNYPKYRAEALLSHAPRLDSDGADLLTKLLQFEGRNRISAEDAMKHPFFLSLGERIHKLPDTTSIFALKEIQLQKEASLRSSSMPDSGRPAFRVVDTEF

CAMK1G = CAMK1G (Homo sapiens, UniProt Q96NX5)
Sequence of CAMK1G (Q96NX5 whole entry): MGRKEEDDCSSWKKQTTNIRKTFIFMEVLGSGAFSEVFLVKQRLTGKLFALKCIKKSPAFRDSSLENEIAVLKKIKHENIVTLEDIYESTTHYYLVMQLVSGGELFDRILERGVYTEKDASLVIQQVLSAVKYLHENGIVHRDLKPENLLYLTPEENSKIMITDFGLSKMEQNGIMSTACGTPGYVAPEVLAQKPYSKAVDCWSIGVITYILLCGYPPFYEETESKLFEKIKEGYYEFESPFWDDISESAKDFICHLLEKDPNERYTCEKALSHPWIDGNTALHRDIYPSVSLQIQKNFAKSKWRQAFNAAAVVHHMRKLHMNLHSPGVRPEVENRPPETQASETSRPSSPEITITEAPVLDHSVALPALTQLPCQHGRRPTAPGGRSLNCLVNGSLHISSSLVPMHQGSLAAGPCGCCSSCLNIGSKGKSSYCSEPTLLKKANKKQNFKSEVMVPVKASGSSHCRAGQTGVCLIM

VRK1 = target: T2, VRK1 (Homo sapiens, UniProt Q99986)
T2 sequence (Q99986 1-396): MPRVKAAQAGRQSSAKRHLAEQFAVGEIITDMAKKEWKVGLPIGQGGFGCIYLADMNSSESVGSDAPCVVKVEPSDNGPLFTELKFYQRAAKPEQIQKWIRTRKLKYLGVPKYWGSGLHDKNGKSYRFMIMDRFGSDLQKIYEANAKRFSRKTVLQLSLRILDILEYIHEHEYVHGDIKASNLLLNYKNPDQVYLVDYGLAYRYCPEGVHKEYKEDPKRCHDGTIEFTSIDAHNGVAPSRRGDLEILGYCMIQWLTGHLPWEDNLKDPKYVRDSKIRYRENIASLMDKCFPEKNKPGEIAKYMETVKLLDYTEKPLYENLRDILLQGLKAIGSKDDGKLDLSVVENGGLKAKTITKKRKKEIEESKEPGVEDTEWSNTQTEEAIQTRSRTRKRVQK

BIKE = target: T3, BIKE (Homo sapiens, UniProt Q9NSY1)
T3 construct: gene BMP2K
T3 sequence (Q9NSY1 whole entry): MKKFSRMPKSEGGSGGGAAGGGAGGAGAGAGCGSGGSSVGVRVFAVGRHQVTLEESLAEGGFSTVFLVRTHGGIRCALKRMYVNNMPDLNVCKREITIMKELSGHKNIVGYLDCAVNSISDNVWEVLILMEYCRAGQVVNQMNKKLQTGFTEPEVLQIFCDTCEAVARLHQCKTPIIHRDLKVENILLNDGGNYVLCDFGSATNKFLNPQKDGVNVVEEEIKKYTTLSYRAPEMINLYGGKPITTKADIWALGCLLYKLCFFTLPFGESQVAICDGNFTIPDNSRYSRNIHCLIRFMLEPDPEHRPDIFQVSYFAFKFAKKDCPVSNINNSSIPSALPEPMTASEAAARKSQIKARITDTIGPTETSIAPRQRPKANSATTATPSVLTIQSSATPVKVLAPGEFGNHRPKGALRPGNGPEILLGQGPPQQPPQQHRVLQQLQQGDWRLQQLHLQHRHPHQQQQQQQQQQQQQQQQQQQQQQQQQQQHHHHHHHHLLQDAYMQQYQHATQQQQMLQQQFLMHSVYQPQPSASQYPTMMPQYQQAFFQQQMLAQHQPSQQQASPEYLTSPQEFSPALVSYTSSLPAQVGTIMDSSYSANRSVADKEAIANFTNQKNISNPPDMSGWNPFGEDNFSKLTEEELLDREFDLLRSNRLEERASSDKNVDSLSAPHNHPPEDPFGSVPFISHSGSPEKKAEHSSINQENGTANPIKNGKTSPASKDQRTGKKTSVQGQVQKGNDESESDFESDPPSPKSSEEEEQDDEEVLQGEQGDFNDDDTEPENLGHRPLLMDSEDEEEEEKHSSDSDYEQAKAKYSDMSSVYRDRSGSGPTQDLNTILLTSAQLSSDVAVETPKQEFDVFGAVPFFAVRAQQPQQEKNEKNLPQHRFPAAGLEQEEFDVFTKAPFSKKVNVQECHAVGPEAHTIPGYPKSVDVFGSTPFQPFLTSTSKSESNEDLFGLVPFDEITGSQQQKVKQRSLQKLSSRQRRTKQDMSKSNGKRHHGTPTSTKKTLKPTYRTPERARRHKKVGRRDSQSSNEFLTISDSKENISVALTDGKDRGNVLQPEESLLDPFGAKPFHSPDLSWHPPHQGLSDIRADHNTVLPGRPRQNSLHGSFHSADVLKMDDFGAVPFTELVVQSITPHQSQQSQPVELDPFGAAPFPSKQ

Erk2 = target: T4, Erk2 (Homo sapiens, UniProt P28482)
T4 construct: gene MAPK1
T4 sequence (P28482 whole entry): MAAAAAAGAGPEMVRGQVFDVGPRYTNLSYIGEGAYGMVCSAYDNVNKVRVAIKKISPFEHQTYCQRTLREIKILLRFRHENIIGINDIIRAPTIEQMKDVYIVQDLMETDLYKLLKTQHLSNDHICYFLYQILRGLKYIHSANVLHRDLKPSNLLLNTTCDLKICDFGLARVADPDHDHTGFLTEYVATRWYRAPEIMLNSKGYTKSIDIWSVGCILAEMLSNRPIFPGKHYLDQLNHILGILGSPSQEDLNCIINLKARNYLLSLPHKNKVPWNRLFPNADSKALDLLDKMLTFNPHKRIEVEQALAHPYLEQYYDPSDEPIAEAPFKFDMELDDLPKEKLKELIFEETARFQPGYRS

TLK1 = target: T5, TLK1 (Homo sapiens, UniProt Q9UKI8)
T5 sequence (Q9UKI8 1-766): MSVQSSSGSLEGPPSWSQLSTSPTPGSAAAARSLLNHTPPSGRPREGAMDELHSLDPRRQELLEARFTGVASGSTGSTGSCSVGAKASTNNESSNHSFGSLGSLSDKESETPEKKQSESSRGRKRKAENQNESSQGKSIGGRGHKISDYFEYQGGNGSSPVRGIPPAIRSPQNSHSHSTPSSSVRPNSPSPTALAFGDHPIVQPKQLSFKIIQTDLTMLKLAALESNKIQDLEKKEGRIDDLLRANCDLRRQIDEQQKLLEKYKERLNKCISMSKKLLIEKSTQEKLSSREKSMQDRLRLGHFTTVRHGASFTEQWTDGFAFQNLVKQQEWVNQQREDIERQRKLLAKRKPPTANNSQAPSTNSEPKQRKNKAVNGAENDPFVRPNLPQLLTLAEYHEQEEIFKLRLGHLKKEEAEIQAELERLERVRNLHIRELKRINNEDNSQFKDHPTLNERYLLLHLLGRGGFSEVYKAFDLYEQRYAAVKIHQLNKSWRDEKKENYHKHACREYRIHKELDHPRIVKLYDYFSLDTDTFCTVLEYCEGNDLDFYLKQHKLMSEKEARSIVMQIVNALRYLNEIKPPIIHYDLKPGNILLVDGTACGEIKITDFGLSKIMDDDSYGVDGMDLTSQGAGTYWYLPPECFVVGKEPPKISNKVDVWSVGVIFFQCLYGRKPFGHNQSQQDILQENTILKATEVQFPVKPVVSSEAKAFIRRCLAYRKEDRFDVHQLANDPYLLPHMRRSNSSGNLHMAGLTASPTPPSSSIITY

PAK4 = PAK4 (Homo sapiens, UniProt O96013)
CLK3 = CLK3 (Homo sapiens, UniProt P49761)
Sequence of CLK3 (P49761 whole entry): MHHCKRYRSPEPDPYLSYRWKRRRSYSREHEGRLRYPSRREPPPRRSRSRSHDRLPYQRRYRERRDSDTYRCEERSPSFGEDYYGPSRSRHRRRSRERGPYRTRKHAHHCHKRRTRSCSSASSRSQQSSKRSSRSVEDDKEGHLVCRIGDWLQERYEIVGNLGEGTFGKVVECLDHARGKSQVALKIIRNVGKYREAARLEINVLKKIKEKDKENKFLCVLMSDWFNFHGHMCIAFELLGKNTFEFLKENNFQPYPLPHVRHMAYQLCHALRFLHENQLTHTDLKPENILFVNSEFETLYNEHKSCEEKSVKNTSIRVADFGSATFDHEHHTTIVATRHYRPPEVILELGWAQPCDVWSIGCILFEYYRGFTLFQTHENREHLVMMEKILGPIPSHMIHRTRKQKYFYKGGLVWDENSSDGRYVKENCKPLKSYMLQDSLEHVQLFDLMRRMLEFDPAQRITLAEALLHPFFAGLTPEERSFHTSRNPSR

WNK1 = WNK1 (Homo sapiens, UniProt Q9H4A3)
CDKL1 = CDKL1 (Homo sapiens, UniProt Q00532)
Sequence of CDKL1 (Q00532 whole entry): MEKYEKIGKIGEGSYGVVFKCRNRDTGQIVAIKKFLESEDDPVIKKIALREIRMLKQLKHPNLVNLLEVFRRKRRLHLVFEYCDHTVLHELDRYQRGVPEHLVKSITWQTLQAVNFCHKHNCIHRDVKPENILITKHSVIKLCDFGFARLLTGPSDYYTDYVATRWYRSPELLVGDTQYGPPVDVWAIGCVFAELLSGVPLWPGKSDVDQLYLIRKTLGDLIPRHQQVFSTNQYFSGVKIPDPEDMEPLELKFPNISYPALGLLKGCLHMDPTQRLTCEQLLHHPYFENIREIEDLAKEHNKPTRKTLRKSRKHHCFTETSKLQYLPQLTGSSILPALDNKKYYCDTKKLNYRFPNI

FLT1 = FLT1 (Homo sapiens, UniProt P17948)
MST4 = target: T6, MST4 (Homo sapiens, UniProt Q9P289)
T6 construct: gene STK26
T6 sequence (Q9P289 whole entry): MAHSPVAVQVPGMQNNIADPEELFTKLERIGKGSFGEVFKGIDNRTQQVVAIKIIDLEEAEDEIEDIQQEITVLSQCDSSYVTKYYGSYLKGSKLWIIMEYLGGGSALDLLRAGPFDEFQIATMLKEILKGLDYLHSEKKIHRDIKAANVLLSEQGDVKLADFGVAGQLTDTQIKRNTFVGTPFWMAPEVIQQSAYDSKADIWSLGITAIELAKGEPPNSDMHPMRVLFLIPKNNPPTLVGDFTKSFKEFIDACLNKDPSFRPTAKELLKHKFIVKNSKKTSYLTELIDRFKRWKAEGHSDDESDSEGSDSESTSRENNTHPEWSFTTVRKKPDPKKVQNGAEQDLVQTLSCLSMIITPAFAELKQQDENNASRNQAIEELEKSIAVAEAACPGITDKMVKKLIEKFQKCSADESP

FES = FES (Homo sapiens, UniProt P07332)
Sequence of FES (P07332 whole entry): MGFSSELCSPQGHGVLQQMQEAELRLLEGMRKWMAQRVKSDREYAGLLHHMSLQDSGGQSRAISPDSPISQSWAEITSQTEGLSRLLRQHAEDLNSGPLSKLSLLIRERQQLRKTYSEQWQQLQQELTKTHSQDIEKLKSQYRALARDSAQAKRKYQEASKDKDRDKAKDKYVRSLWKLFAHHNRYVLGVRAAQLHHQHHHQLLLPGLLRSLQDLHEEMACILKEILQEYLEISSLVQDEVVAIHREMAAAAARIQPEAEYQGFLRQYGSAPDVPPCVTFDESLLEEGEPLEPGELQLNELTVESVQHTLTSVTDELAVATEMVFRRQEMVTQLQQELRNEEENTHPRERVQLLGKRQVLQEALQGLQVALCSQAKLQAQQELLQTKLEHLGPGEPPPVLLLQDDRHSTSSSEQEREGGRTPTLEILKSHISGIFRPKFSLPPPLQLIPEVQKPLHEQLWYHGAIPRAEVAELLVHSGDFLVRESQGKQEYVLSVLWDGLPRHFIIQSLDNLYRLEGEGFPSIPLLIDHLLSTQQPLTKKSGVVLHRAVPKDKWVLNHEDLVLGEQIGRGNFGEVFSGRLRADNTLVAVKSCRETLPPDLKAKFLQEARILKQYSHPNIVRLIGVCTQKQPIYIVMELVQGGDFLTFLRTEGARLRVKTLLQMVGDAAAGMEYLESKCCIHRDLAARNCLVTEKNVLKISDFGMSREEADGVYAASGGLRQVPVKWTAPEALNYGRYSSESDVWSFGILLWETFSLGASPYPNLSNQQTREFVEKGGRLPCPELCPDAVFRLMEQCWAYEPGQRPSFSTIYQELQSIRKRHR

ΔTm at 10 µM (MAPKAPK2; read-out: 7c): 0 °C
ΔTm at 10 µM (PCTAIRE1; read-out: 7c): 2 °C
ΔTm at 10 µM (CAMK1G; read-out: 7c): -1 °C
ΔTm at 10 µM (VRK1; read-out: 7c): 0 °C
ΔTm at 10 µM (BIKE; read-out: 7c): 10 °C
ΔTm at 10 µM (Erk2; read-out: 7c): 0 °C
ΔTm at 10 µM (TLK1; read-out: 7c): -1 °C
ΔTm at 10 µM (PAK4; read-out: 7c): 1 °C
ΔTm at 10 µM (CLK3; read-out: 7c): 7 °C
ΔTm at 10 µM (WNK1; read-out: 7c): 0 °C
ΔTm at 10 µM (CDKL1; read-out: 7c): 1 °C
ΔTm at 10 µM (FLT1; read-out: 7c): 5 °C
ΔTm at 10 µM (MST4; read-out: 7c): -1 °C
ΔTm at 10 µM (FES; read-out: 7c): 0 °C
SMILES: COc1ccc(OC(C)C)cc1Nc1cncc(-c2ccc(C(=O)O)cc2)n1 [7c]

ΔTm at 10 µM (MAPKAPK2; read-out: 6c): -1 °C
ΔTm at 10 µM (PCTAIRE1; read-out: 6c): 5 °C
ΔTm at 10 µM (CAMK1G; read-out: 6c): 0 °C
ΔTm at 10 µM (VRK1; read-out: 6c): 0 °C
ΔTm at 10 µM (BIKE; read-out: 6c): 11 °C
ΔTm at 10 µM (Erk2; read-out: 6c): 0 °C
ΔTm at 10 µM (TLK1; read-out: 6c): -1 °C
ΔTm at 10 µM (PAK4; read-out: 6c): 3 °C
ΔTm at 10 µM (CLK3; read-out: 6c): 8 °C
ΔTm at 10 µM (WNK1; read-out: 6c): 2 °C
ΔTm at 10 µM (CDKL1; read-out: 6c): 3 °C
ΔTm at 10 µM (FLT1; read-out: 6c): 7 °C
ΔTm at 10 µM (MST4; read-out: 6c): -4 °C
ΔTm at 10 µM (FES; read-out: 6c): -1 °C
SMILES: CC(C)Oc1ccc2ccn(-c3cncc(-c4ccc(C(=O)O)cc4)n3)c2c1 [6c]

ΔTm at 10 µM (MAPKAPK2; read-out: 2): 0 °C
ΔTm at 10 µM (PCTAIRE1; read-out: 2): 2 °C
ΔTm at 10 µM (CAMK1G; read-out: 2): 2 °C
ΔTm at 10 µM (VRK1; read-out: 2): 1 °C
ΔTm at 10 µM (BIKE; read-out: 2): 13 °C
ΔTm at 10 µM (Erk2; read-out: 2): 0 °C
ΔTm at 10 µM (TLK1; read-out: 2): 1 °C
ΔTm at 10 µM (PAK4; read-out: 2): 3 °C
ΔTm at 10 µM (CLK3; read-out: 2): 8 °C
ΔTm at 10 µM (WNK1; read-out: 2): 1 °C
ΔTm at 10 µM (CDKL1; read-out: 2): 2 °C
ΔTm at 10 µM (FLT1; read-out: 2): 7 °C
ΔTm at 10 µM (MST4; read-out: 2): 3 °C
ΔTm at 10 µM (FES; read-out: 2): 2 °C
SMILES: CC(C)Nc1ccc2cnn(-c3cncc(-c4ccc(C(=O)O)cc4)n3)c2c1 [compound 2, 2]
